According to patent US20260157984A1, “CERAMIDE COMPOSITION” (GENUINE R&D CO., LTD., priority 2021, published 2026):

System: HaCaT cells
Assay: Measurement of mitochondrial activity by IN Cell Analyzer 2200 in HaCaT cells
Assay type: cell-based, human
Conditions: HaCaT cells treated with ceramides 48 hours, 5 μM, FIG. 1
Description: A human epidermal keratinocyte cell line, i.e., HaCaT cells, was used as a human skin cell model. The cells were subcultured in a cell culture dish (Greiner Bio-One Co., Ltd., Tokyo, Japan) at 37° C. in the presence of 5% CO2 by using DMEM medium (Dulbecco's Modified Eagle Medium, Nissui, Tokyo, Japan) containing 10% inactivated fetal bovine serum (FBS, Life Technologies Corporation, CA, USA). […]
HaCaT cells were seeded in a 96-well plate at a density of 6.0×10^4 cells/mL and precultured for 24 hours. […] Thereafter, the diluted Hoechst […] solution was removed from the 96-well plate, […] of PBS was added, and the fluorescence was detected using an IN Cell Analyzer 2200 (GE Healthcare). By measuring the amounts of fluorescence of MitoTracker Red, MitoTracker Green, and Hoechst 33342, the mitochondrial activity, number, and area in the cells were examined. The images were analyzed using IN Cell Investigator High-content image analysis software (GE Healthcare).
The mitochondrial number and area (MitoTracker Green), as well as the mitochondrial membrane potential activity (MitoTracker Red), per cell were measured using an IN Cell Analyzer 2200 in HaCaT cells treated with ceramides for 48 hours.

`CCCCCCCCCCCCCCCCCC(=O)N[C@@H](CO)[C@H](O)CCCCCCCCCCCCCCC` [synthetic ceramide, ceramide NG] was tested, and the “mitochondrial number per cell (MitoTracker Green)” value was “significantly increased”.
